# According to ChEMBL document CHEMBL3991601, “The target landscape of clinical kinase drugs” (Science, 2017):
# Counter-ions that a name gives are not always drawn. Active and inactive are the calls of the source. On the calls: in the data inactive means no Kd found up to 30 µM.
# Columns and labels:
# [1] = target: Serine/threonine-protein kinase 24 (Homo sapiens, UniProt Q9Y6E0)
# [2] = target: Serine/threonine-protein kinase pim-2 (Homo sapiens, UniProt Q9P1W9)
# [3] = target: Dual specificity testis-specific protein kinase 2 (Homo sapiens, UniProt Q96S53)
# [4] = target: Eukaryotic peptide chain release factor GTP-binding subunit ERF3B (Homo sapiens, UniProt Q8IYD1)
# [5] = target: Serine/threonine-protein kinase ATR (Homo sapiens, UniProt Q13535)
# [6] = target: Serine/threonine-protein kinase 38 (Homo sapiens, UniProt Q15208)
# [7] = target: T1, Dual specificity mitogen-activated protein kinase kinase 4 (Homo sapiens, UniProt P45985)
# T1 sequence (P45985 whole entry): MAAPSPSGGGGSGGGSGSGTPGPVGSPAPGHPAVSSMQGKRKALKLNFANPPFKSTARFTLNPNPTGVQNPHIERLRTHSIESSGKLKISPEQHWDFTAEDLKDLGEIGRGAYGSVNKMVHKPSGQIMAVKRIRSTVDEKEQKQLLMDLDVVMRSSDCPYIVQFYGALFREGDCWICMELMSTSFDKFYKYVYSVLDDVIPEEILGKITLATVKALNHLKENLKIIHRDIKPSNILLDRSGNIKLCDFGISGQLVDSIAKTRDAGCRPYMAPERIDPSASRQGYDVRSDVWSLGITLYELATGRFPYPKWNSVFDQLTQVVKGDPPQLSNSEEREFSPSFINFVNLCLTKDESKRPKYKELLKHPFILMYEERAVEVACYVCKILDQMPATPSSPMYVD
# [8] = target: Tyrosine-protein kinase JAK2 (Homo sapiens, UniProt O60674)
# [9] = target: T2, Isoleucine--tRNA ligase, mitochondrial (Homo sapiens, UniProt Q9NSE4)
# T2 sequence (Q9NSE4 whole entry): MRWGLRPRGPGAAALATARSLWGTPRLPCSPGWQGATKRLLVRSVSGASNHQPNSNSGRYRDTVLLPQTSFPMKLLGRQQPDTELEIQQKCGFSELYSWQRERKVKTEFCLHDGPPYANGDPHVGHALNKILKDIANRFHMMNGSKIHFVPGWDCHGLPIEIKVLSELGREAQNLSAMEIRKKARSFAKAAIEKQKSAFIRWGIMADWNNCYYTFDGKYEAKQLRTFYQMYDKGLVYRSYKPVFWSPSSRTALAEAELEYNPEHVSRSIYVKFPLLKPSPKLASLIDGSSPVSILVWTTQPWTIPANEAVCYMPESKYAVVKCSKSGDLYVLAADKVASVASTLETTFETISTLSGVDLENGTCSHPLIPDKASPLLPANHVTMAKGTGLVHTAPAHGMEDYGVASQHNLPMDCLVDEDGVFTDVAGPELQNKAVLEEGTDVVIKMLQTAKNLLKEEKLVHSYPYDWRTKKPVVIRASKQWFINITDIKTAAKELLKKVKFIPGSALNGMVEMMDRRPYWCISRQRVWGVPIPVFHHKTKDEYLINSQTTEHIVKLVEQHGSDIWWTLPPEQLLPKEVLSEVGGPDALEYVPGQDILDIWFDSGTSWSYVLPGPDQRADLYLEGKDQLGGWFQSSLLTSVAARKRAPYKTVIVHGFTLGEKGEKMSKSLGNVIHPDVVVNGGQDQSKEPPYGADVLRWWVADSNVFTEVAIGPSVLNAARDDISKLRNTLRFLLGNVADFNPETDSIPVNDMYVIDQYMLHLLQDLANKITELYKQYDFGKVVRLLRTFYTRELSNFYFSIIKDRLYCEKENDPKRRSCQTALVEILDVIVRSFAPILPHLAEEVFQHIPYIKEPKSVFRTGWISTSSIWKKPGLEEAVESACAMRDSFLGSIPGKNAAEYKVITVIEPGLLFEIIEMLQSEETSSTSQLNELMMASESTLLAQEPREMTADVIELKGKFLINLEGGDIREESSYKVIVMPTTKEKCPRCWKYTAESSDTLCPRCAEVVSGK
# [10] = target: Tyrosine-protein kinase Fgr (Homo sapiens, UniProt P09769)
# [11] = target: Dual specificity tyrosine-phosphorylation-regulated kinase 1B (Homo sapiens, UniProt Q9Y463)
# [12] = target: Cyclin-dependent kinase 10 (Homo sapiens, UniProt Q15131)
# Cyclin-dependent kinase 10, sequence (Q15131 whole entry): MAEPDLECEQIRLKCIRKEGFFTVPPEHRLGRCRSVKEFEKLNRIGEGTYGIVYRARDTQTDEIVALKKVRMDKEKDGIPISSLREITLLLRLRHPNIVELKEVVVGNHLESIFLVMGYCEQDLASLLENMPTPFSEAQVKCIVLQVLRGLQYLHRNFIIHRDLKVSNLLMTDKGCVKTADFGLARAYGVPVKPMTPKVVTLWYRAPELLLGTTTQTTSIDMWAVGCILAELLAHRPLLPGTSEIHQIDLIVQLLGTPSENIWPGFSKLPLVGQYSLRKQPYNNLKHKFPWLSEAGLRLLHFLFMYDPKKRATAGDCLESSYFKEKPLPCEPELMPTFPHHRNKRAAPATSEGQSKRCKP
# Eukaryotic peptide chain release factor GTP-binding subunit ERF3B, sequence (Q8IYD1 whole entry): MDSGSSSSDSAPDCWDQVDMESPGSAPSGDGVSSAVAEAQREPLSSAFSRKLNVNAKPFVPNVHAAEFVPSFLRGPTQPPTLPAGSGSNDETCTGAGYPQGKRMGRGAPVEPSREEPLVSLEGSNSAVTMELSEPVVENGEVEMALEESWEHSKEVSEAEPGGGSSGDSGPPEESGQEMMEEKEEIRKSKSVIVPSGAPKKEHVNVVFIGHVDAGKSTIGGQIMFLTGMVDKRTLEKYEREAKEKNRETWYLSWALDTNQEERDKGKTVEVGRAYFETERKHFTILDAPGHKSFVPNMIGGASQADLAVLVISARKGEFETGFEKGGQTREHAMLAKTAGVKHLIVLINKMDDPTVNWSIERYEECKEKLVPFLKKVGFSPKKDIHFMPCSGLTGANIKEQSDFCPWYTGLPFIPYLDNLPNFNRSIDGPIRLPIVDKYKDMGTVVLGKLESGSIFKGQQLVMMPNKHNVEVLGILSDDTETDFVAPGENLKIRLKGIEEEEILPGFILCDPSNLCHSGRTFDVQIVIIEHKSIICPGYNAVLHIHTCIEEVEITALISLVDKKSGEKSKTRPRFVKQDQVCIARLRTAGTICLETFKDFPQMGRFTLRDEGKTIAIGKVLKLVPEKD
# Tyrosine-protein kinase Fgr, sequence (P09769 whole entry): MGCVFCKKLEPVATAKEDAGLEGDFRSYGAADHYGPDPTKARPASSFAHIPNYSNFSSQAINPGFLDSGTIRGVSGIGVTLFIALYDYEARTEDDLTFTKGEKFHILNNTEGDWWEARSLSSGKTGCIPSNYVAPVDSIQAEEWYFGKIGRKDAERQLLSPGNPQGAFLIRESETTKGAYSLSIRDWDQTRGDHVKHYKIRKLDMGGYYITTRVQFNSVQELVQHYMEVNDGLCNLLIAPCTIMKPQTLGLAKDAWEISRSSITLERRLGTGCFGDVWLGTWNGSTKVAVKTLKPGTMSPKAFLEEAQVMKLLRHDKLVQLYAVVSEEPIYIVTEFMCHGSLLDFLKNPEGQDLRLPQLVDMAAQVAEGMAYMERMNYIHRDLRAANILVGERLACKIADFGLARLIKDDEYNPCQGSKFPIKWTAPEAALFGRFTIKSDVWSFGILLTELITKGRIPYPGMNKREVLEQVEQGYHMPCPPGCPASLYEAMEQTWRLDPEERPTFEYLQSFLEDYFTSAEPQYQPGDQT
# Tyrosine-protein kinase JAK2, sequence (O60674 whole entry): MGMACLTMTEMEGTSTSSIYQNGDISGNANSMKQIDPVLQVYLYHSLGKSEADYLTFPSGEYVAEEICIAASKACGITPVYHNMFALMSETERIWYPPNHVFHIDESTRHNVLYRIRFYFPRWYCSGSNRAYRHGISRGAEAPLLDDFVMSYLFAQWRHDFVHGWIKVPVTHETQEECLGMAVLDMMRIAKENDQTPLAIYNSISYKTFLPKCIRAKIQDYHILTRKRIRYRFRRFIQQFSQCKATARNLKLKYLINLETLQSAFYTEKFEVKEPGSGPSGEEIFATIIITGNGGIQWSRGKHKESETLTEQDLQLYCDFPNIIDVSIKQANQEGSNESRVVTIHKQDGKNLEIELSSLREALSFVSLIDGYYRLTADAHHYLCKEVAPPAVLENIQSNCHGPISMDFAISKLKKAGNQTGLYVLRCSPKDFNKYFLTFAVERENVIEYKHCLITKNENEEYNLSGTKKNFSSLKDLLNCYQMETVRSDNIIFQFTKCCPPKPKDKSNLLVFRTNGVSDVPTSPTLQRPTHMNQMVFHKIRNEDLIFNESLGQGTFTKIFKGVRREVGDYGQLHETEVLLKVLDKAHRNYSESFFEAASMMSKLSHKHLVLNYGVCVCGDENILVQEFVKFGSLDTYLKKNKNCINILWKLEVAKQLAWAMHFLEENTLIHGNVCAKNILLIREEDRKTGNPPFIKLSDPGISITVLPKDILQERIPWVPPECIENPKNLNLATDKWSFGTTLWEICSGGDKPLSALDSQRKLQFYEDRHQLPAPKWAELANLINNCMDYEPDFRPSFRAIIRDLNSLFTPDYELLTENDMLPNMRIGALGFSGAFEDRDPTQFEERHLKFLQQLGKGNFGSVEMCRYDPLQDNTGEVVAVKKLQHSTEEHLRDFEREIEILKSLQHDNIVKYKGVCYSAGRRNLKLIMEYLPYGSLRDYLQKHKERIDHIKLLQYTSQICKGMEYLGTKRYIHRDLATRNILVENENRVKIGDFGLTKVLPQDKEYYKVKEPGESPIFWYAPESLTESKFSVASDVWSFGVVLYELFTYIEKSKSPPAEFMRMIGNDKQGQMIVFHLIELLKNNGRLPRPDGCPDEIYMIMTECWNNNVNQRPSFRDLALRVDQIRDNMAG
# Serine/threonine-protein kinase 38, sequence (Q15208 whole entry): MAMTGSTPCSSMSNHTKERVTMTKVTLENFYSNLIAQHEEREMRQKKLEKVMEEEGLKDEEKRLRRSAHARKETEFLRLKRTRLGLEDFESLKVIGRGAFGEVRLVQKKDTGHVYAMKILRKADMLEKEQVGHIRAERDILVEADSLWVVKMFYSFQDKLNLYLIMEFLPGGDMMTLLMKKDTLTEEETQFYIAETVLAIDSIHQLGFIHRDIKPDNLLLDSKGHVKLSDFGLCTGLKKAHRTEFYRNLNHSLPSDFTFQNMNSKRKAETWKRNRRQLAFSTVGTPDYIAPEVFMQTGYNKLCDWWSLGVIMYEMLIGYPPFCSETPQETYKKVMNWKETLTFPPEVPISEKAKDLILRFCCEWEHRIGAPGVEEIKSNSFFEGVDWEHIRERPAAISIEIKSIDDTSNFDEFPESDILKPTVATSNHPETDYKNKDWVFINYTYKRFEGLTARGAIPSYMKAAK
# Dual specificity testis-specific protein kinase 2, sequence (Q96S53 whole entry): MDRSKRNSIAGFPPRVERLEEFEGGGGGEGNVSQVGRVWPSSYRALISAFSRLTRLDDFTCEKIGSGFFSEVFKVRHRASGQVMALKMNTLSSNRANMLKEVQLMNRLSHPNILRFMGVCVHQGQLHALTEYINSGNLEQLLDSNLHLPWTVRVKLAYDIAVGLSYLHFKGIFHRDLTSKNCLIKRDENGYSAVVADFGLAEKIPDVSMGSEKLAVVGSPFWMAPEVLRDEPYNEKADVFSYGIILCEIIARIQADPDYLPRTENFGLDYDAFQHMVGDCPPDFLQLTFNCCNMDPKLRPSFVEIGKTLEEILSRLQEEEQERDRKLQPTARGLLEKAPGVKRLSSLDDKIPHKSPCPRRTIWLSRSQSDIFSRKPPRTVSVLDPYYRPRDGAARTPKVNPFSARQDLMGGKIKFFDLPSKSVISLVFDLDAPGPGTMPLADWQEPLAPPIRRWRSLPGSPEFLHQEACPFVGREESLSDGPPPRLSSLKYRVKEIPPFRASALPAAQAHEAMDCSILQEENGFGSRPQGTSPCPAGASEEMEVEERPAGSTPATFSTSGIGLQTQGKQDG
# Serine/threonine-protein kinase 24, sequence (Q9Y6E0 whole entry): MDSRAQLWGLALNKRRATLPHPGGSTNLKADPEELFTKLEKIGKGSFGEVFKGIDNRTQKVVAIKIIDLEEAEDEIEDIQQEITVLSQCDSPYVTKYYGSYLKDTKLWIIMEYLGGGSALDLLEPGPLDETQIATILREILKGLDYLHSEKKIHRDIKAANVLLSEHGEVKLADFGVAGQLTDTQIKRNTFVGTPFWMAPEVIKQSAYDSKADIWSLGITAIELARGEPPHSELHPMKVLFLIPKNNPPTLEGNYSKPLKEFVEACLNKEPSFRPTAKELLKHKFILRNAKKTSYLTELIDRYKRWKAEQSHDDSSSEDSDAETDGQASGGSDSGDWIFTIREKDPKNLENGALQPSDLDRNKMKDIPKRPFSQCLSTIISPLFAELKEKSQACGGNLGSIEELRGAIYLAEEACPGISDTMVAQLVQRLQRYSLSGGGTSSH
# Serine/threonine-protein kinase pim-2, sequence (Q9P1W9 whole entry): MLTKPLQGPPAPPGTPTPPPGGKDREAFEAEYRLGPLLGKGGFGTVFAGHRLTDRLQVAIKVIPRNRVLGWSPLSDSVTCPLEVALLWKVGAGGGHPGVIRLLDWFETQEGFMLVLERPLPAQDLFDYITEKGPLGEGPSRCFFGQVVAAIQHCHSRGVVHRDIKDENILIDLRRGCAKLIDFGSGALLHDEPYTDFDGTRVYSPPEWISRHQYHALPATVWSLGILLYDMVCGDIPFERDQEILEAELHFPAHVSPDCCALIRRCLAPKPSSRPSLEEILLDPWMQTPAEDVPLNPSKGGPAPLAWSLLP
Kd [1],Kd [2],Kd [3],Kd [5],Kd [9],SMILES,other results
> 30 µM (inactive),> 30 µM (inactive),,,,C[C@@H](Oc1cc(C(=O)Nc2ccc(C(=O)N3CCN(C)CC3)cc2)nnc1N)c1c(Cl)ccc(F)c1Cl,
> 30 µM (inactive),,> 30 µM (inactive),,,C[C@H]1CNCCCN1S(=O)(=O)c1cccc2cncc(F)c12,Kd [4]: > 30 µM (inactive)
> 30 µM (inactive),,,> 30 µM (inactive),,CCNC(=O)C#Cc1ccc2c(c1)NC(=O)/C2=C(\Nc1ccc(CN(C)C)cc1)c1ccccc1,Kd [6]: > 30 µM (inactive)
> 30 µM (inactive),> 30 µM (inactive),> 30 µM (inactive),,,C=CC(=O)N1CCC[C@H](n2c(=O)n(-c3ccc(Oc4ccccc4)cc3)c3c(N)ncnc32)C1,Kd [7]: > 30 µM (inactive)
> 30 µM (inactive),,0.018 µM,> 30 µM (inactive),> 30 µM (inactive),Cc1nc2cc(-c3nn(C(C)C)c4ncnc(N)c34)ccc2o1,Kd [8]: > 30 µM (inactive); Kd [10]: > 30 µM (inactive); Kd [4]: > 30 µM (inactive)
,,,> 30 µM (inactive),> 30 µM (inactive),Cc1nc(NC(=O)N2CCC[C@H]2C(N)=O)sc1-c1ccnc(C(C)(C)C(F)(F)F)c1 [ALPELISIB],Kd [7]: > 30 µM (inactive)
,> 30 µM (inactive),> 30 µM (inactive),> 30 µM (inactive),,C=CC(=O)Nc1cc2c(Nc3ccc(F)c(Cl)c3)ncnc2cc1C#CC(C)(C)N1CCN(C)CC1 [AV-412 FREE BASE],Kd [11]: > 30 µM (inactive)
,,,,,CNC(=O)c1ccccc1Sc1ccc2c(/C=C/c3ccccn3)n[nH]c2c1 [AXITINIB],Kd [4]: > 30 µM (inactive)
> 30 µM (inactive),> 30 µM (inactive),,,> 30 µM (inactive),COc1cc2ncnc(Oc3cccc(NC(=O)Nc4cc(C(C)(C)C(F)(F)F)on4)c3)c2cc1OC [CEP-32496],Kd [7]: > 30 µM (inactive); Kd [12]: > 30 µM (inactive); Kd [6]: > 30 µM (inactive)
,> 30 µM (inactive),,> 30 µM (inactive),,Cc1cc(Nc2ncc(Cl)c(Nc3ccccc3S(=O)(=O)C(C)C)n2)c(OC(C)C)cc1C1CCNCC1 [CERITINIB],Kd [6]: > 30 µM (inactive); Kd [11]: > 30 µM (inactive)
,> 30 µM (inactive),,> 30 µM (inactive),,CCS(=O)(=O)N1CCN(c2ccc(Nc3ncc(C(N)=O)c(NC4CC4)n3)cc2)CC1 [Cerdulatinib Hydrochloride],
> 30 µM (inactive),> 30 µM (inactive),> 30 µM (inactive),,> 30 µM (inactive),Cc1nc2cc(-n3ncc(C(=O)c4cc5ccccc5[nH]4)c3N)ccc2[nH]1 [FGFR INHIBITOR DEBIO 1347],Kd [10]: > 30 µM (inactive)
,,> 30 µM (inactive),> 30 µM (inactive),> 30 µM (inactive),C[C@@H](Oc1cc(-n2cnc3ccc(CN4CCN(C)CC4)cc32)sc1C(N)=O)c1ccccc1C(F)(F)F [GSK-461364],
> 30 µM (inactive),> 30 µM (inactive),> 30 µM (inactive),> 30 µM (inactive),,COc1ccc(S(=O)(=O)N(C(C)=O)c2ccccc2/C=C/c2cc[n+]([O-])cc2)cc1 [HMN-214],Kd [10]: > 30 µM (inactive)
> 30 µM (inactive),> 30 µM (inactive),,> 30 µM (inactive),> 30 µM (inactive),CNC(=O)c1cccc2cc(Oc3ccnc4cc(OCC5(N)CC5)c(OC)cc34)ccc12 [LUCITANIB],
> 30 µM (inactive),,,,> 30 µM (inactive),NC1(c2ccc(-c3nc4ccn5c(=O)[nH]nc5c4cc3-c3ccccc3)cc2)CCC1 [MK-2206],Kd [11]: > 30 µM (inactive)
,,> 30 µM (inactive),,> 30 µM (inactive),Cc1[nH]c(/C=C2\C(=O)Nc3ccccc32)c(C)c1CCC(=O)O [ORANTINIB],Kd [10]: > 30 µM (inactive); Kd [7]: > 30 µM (inactive); Kd [12]: > 30 µM (inactive)
,,,> 30 µM (inactive),,NC(=O)c1c(OCc2c(F)cc(Br)cc2F)nsc1NC(=O)NCCCCN1CCCC1 [OSI-632],Kd [10]: > 30 µM (inactive); Kd [7]: > 30 µM (inactive); Kd [6]: > 30 µM (inactive)
0.019 µM,,> 30 µM (inactive),,,CC(=O)NCC(=O)N1[C@@H]2CC[C@H]1c1ccc(Nc3ncc(C(F)(F)F)c(NC4CCC4)n3)cc12 [PF-03814735],Kd [7]: > 30 µM (inactive)
> 30 µM (inactive),> 30 µM (inactive),> 30 µM (inactive),> 30 µM (inactive),> 30 µM (inactive),Cc1cnc(NC(=O)Nc2cc(Br)c(C)cc2OC[C@@H]2CNCCO2)cn1 [RABUSERTIB],Kd [8]: > 30 µM (inactive); Kd [7]: > 30 µM (inactive); Kd [12]: > 30 µM (inactive); Kd [4]: > 30 µM (inactive)
,,> 30 µM (inactive),> 30 µM (inactive),> 30 µM (inactive),O=C(NOCCO)c1cc(CN2OCCCC2=O)c(F)c(F)c1Nc1ccc(I)cc1F [RO-4987655],
,,,,> 30 µM (inactive),N#CC[C@H](C1CCCC1)n1cc(-c2ncnc3[nH]ccc23)cn1 [RUXOLITINIB],Kd [4]: > 30 µM (inactive)
,,,,,Cn1cc(-c2cnn3c(N)c(Br)c([C@@H]4CCCNC4)nc23)cn1 [SCH-900776],Kd [10]: > 30 µM (inactive); Kd [6]: > 30 µM (inactive)
> 30 µM (inactive),> 30 µM (inactive),> 30 µM (inactive),,,CCS(=O)(=O)c1cccc(-c2cc(C(=O)NC3CCN(C)CC3)c(C)c3[nH]c4ncc(C)cc4c23)c1 [TAK-901],Kd [7]: > 30 µM (inactive)
> 30 µM (inactive),,> 30 µM (inactive),> 30 µM (inactive),> 30 µM (inactive),COc1cc2c(Nc3ccc(Cl)c(Cl)c3F)ncnc2cc1OC[C@@H]1C[C@@H]2CN(C)C[C@@H]2C1 [TESEVATINIB],Kd [7]: > 30 µM (inactive)
,> 30 µM (inactive),> 30 µM (inactive),,,O=C1NC(=O)[C@@H](c2cn3c4c(cccc24)CCC3)[C@@H]1c1c[nH]c2ccccc12 [TIVANTINIB],
> 30 µM (inactive),> 30 µM (inactive),,,,Cn1ncc(Cl)c1-c1cc(C(=O)N[C@H](CN)Cc2ccc(F)c(F)c2)oc1Cl [UPROSERTIB],Kd [6]: > 30 µM (inactive)
> 30 µM (inactive),> 30 µM (inactive),,> 30 µM (inactive),,CC(C)c1cc(CNc2nc(Nc3cc(C4CC4)[nH]n3)cc(N3CCN(C)CC3)n2)on1 [XL-228],
,,,> 30 µM (inactive),> 30 µM (inactive),CN1C/C=C/CCOc2cccc(c2)-c2ccnc(n2)Nc2cccc(c2)C1 [ZOTIRACICLIB],

SMILES,Kd [1],Kd [2],Kd [3],Kd [5],Kd [9],other results
COc1cc([C@@H]2c3cc4c(cc3[C@H](O)[C@H]3COC(=O)[C@@H]23)OCO4)cc(OC)c1OC [AXL-1717],> 30 µM (inactive),> 30 µM (inactive),,,> 30 µM (inactive),Kd [12]: > 30 µM (inactive); Kd [6]: > 30 µM (inactive)
Cn1cc(C2=C(c3cn(C4CCN(Cc5ccccn5)CC4)c4ccccc34)C(=O)NC2=O)c2ccccc21 [ENZASTAURIN],,,> 30 µM (inactive),> 30 µM (inactive),,
O=C(Nc1cc(C(F)(F)F)cc(C(F)(F)F)c1)c1cc(Cl)ccc1O [IMD-0354],> 30 µM (inactive),,,> 30 µM (inactive),,
CCOc1cc2ncc(C#N)c(Nc3ccc(F)c(Cl)c3)c2cc1NC(=O)/C=C/CN(C)C [PELITINIB],,> 30 µM (inactive),,,> 30 µM (inactive),Kd [7]: > 30 µM (inactive); Kd [12]: > 30 µM (inactive); Kd [6]: > 30 µM (inactive)
CNC(=O)c1cc(Oc2ccc(NC(=O)Nc3cc(C(C)(C)C)nn3-c3ccc4ncccc4c3)c(F)c2)ccn1 [REBASTINIB],,> 30 µM (inactive),0.002 µM,,,Kd [8]: 4.46 µM (active)
